Laboratory results from patent US10172909B2, “Neuropeptide analogs, compositions, and methods for treating pain” (NeuroAdjuvants, Inc., priority 2010, dated 2019).
Square brackets hold non-standard residues; d marks the D form. Ends that are not written are not given here. Peptide text beside a SMILES is read from it. * marks the point of attachment. MeO(CH2CH2O)23CH2CH2CO = COCCOCCOCCOCCOCCOCCOCCOCCOCCOCCOCCOCCOCCOCCOCCOCCOCCOCCOCCOCCOCCOCCOCCOCCC(=O)*; α‑Lnn = alpha-linolenic acid on Lys, CC/C=C\C/C=C\C/C=C\CCCCCCCC(=O)*; NMeW = CN[C@@H](Cc1c[nH]c2ccccc12)C(=O)O; MPEG24 = PEG24 on Lys (Lys-MPEG_24); Palmitoyl = CCCCCCCCCCCCCCCC(=O)*; MPEG4 = PEG4 on Lys (Lys-MPEG_4); Ahx = NCCCCCC(=O)O; Sar = CNCC(=O)O

Legend:
mice = assay: formalin test of acute and chronic hyperalgesia in mice; type: in vivo; design: AUC Acute: unit not given beside the values; conditions: mouse formalin test; for AUC Acute / AUC Inflammatory: i.p., licking AUC as percentage of control AUC, mean ± S.E.M., n=8
Experimental: Gal-93 and other MEGylated analogs were tested using the formalin test of acute and chronic hyperalgesia in mice. The formalin test was performed according to the method described by Tjolsen et al. (Tjolsen A, Berge O G, Hunskaar S, Rosland J H, Hole K. The Formalin Test: An Evaluation of the Method. Pain 53(2), 237; 1992). More specifically, an injection of 0.5% formalin is made into the plantar region of the right hind paw of a mouse. This elicits a distinct behavioral profile in response to the formalin injection characterized by the mouse licking the affected paw. The behavior is characteristically biphasic in nature. For example, immediately following the injection the mouse intensely licks the paw for approximately 5-10 min. This initial behavior is considered phase 1 (acute) and is thought to be mediated primarily by chemical activation of local C-fibers. The acute phase is followed by a brief latent (usually <5 min) period where there is little or no behavioral activity. A more prolonged (about 20 to 30 min) period of licking then ensues which constitutes phase 2 of the response (inflammatory). Prior to the administration of the test drug or vehicle, each mouse undergoes a 15-min conditioning period in one of several 6″ tall plexiglass cages (4″ diameter) that are placed in front of a mirror. It is in these tubes that mice are observed for the licking activity for the duration of the experiment. Following conditioning, the test substance is dosed i.p. after which the mouse is returned to its home tube. At the TPE of the test substance, formalin is injected sub-dermally into the plantar surface of the right hind foot in a volume of 20 μl with a 27 gauge stainless steel needle attached to a Hamilton syringe. The bevel of the needle is placed facing down toward the skin surface.
The cumulative length of licking for each 2-min time period was recorded. An animal receiving the requisite volume of vehicle was alternated with each mouse given the test peptide. Area under the curve (AUC) and subsequent percent of control for drug-treated animal groups (n=8) was determined using the GraphPad Prism Version 3.03. Total AUC was calculated for both the test substance and control groups for both the acute and inflammatory phases. The AUC for individual animals for each phase was also calculated and converted to percentage of total AUC of control. The average and S.E.M. for both the drug treated and control percentages were then calculated and tested for significant differences.

Sprague-Dawley rats = conditions: rat, in vivo, iv

“WTLNSAGYLLGPKK(Lys-MPEG4)K-NH2 (WTLNSAGYLLGPKKK(MPEG4)K-NH2) [Gal-103]” was tested, and the “AUC Acute” value (mice) was 66.3 ± 14.6 and the “AUC Inflammatory” value (mice) was 75.6 ± 8.9.

In the case of “(Sar)WTLNSAGYLLGPKK(Lys-α-Lnn)K(Lys-MPEG24)-NH2 ([Sar]WTLNSAGYLLGPKKK(α‑Lnn)KK(MPEG24)-NH2) [Gal-100]”, the “AUC Acute” value (mice) is reported as 83.08 ± 13.34, the “AUC Inflammatory” value (mice) is reported as 33.78 ± 3.04 and the “duration of licking, inflammatory phase” value (mice; result in words) is reported as “significantly reduced”.

With “(Sar)WTLNSAGYLLGPKK(Lys-Pal)K(Lys-MPEG24)-NH2 ([Sar]WTLNSAGYLLGPKKK(Palmitoyl)KK(MPEG24)-NH2) [Gal-81]” the “AUC Acute” value (mice) was 19.7 ± 7.2, the “AUC Inflammatory” value (mice) was 2.9 ± 2.2 and the “duration of licking, acute phase” value (mice; result in words) was “significantly reduced”. For the same compound, the “duration of licking, inflammatory phase” value (mice; result in words) was “significantly reduced”.

With `CC[C@H](C)[C@H](NC(=O)[C@H](Cc1ccc(O)cc1)NC(=O)[C@H](Cc1c[nH]cn1)NC(=O)[C@H](CCCNC(=N)N)NC(=O)[C@H](C)NC(=O)CCCCCNC(=O)[C@H](CCCCNC(=O)CCOCCOCCOCCOCCOCCOCCOCCOCCOCCOCCOCCOCCOCCOCCOCCOCCOCCOCCOCCOCCOCCOCCOCCOC)NC(=O)[C@H](CCCCN)NC(=O)[C@H](CCCCN)NC(=O)[C@H](Cc1ccc(O)cc1)NC(C)=O)C(=O)N[C@@H](CC(N)=O)C(=O)N[C@@H](CC(C)C)C(=O)N[C@H](C(=O)N[C@H](C(=O)N[C@@H](CCCNC(=N)N)C(=O)N[C@@H](CCC(N)=O)C(=O)N[C@@H](CCCNC(=N)N)C(=O)N[C@@H](Cc1ccc(O)cc1)C(N)=O)[C@@H](C)O)[C@@H](C)CC` [NPY-B42] (Ac-YKKK(MeO(CH2CH2O)23CH2CH2CO)[Ahx]ARHYINLITRQRY-NH2) the “HCT 30 min” value (Sprague-Dawley rats) was 42 ± 2, the “HCT 60 min” value (Sprague-Dawley rats) was 42 ± 1 and the “Phenylephrine post-treatment response BP max” value (Sprague-Dawley rats) was 161 ± 4. For the same compound, the “Phenylephrine post-treatment response HR min” value (Sprague-Dawley rats) was 291 ± 26, the “difference from vehicle treated rats in any cardiovascular parameter measured” value (Sprague-Dawley rats) was “neither Gal-93 or NPY-B42 showed statistically significant difference from vehicle treated rats” and the “glucose 30 min” value (Sprague-Dawley rats) was 78 ± 5. For the same compound, the “glucose 60 min” value (Sprague-Dawley rats) was 73 ± 4, the “plasma protein 30 min” value (Sprague-Dawley rats) was 6.5 ± 0.4 and the “plasma protein 60 min” value (Sprague-Dawley rats) was 6.8 ± 0.3. The “temperature 30 min” value (Sprague-Dawley rats) was 37.2 ± 0.2 and the “temperature 60 min” value (Sprague-Dawley rats) was 36.9 ± 0.4.

In the case of “(N-Methyl-Trp)TLNSAGYLLGPKK(Lys-MPEG4)K-NH2 ([NMeW]TLNSAGYLLGPKKK(MPEG4)K-NH2) [Gal-104]”, the “duration of licking, inflammatory phase” value (mice; result in words) is reported as “significantly reduced”.
